Where two headings read alike, the source gives them in different places.
What was measured:
PRMT5/MEP50 Complex = PRMT5/MEP50 Complex (Homo sapiens, UniProt O14744); assay: Methyltransferase inhibition panel: PRMT5/MEP50 Complex; type: biochemical
Protocol: (§1) The ability of ETP69 to inhibit methyltransferases was tested.

NSD2 (T1150A) = biological target: T1, NSD2 (T1150A) (Homo sapiens, UniProt O96028, T1150A); assay: Methyltransferase inhibition panel: NSD2 (T1150A); type: biochemical
T1 sequence (O96028 1-1365 T1150A): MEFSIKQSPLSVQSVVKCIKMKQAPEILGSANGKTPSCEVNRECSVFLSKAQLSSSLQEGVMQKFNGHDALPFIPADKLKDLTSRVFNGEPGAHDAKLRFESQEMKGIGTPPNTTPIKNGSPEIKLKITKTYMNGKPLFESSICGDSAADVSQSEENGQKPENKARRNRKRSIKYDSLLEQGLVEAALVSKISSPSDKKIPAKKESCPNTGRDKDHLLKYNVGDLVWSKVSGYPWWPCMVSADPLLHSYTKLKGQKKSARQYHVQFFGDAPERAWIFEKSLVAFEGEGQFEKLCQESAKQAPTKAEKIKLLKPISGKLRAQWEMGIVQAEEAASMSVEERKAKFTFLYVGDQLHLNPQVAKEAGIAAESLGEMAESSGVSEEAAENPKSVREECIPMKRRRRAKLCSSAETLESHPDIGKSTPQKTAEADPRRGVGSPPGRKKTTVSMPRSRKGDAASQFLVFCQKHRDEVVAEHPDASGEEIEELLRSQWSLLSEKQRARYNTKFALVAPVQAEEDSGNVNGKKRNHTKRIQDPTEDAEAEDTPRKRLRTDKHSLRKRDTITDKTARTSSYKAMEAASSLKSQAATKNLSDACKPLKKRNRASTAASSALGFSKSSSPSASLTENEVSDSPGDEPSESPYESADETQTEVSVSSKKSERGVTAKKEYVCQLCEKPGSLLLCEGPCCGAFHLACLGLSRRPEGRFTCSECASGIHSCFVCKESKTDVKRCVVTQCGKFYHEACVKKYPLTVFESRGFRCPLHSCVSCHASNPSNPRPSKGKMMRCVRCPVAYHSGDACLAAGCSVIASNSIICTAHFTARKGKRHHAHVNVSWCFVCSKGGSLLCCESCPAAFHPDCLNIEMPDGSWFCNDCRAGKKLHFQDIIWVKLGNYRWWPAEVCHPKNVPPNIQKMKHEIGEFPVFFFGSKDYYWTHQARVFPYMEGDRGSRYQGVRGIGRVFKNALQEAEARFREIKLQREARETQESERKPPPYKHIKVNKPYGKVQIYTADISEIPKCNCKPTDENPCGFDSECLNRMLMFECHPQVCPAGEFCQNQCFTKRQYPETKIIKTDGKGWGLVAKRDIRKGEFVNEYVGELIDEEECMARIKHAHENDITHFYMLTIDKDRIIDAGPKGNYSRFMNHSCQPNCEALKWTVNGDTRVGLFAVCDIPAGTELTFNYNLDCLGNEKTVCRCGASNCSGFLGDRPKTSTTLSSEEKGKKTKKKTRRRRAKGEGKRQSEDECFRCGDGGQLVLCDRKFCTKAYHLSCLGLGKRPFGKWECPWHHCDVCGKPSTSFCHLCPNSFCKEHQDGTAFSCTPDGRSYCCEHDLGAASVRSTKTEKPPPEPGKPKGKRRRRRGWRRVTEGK
Protocol: as §1

H3K9me3 = H3K9me3 staining in cingulate/cerebral cortex and hippocampus; type: in vivo, mice; set-up: reduction of H3K9me3 IR area / reduction of hippocampal H3K9me3 levels: concentration or dose not given beside the values; conditions: for reduction of hippocampal H3K9me3 levels: 15 days after injection; for decrease in neuronal H3K9me3 irradiance: cingulate cortex; for reduction of H3K9me3 IR area: cortex
Protocol: The experimental protocol is depicted in FIG. 2A. Mice were treated with ETP69 or DMSO. After 2 days, they were tested on the color X-maze. At day 12, they were tested on the Barnes maze. On day 14, they were tested for fear conditioning. Brain tissue was isolated as depicted for analysis of H3K9me3 staining on days 4 and 15, as depicted in FIG. 2B-2D. Levels of H3K9me3 correlated with the percent of alterations at day 4 as depicted in FIG. 2E. At day 15, H3K9me3 was decreased in mice treated with ETP69 as compared to mice treated with DMSO. Levels of H3K9me3 was decreased in both the cingulate cortex and the hippocampus at 4 and 15 days (FIGS. 2J-2M).
The effects of single and repeated ETP69 injections in mice were tested. The experimental timeline is depicted in FIG. 5. Three parallel injection conditions were tested: a single ETP69 condition, a boosted ETP69 injection, and repeated ETP69 injections. The single injection mice received one injection of ETP69 or DMSO at Day 0. The mice that received a boosted injection received one injection of ETP69 or DMSO at day 0 and one injection at day 9. The mice that received repeated injections received 11 injections of ETP69 or DMSO at day 0 or day 9. Both wildtype and AD model (APP/PS1-transgenic) mice were tested.
AD+ brains were stained for neuronal H3K9me3 and DAPI. Representative images of the cingulate cortex and hippocampus of DMSO and ETP69 treated mice are depicted in FIGS. 8A and 8C, respectively. Neuronal H3K9me3 irradiance in the cingulate cortex is quantified in FIG. 8B. […] H3K9me3 staining in the DG correlated with performance in the Barnes Test, while K3K9me3 staining in the hippocampus was correlated with performance in the fear conditioning test.
The effects of ETP69 on cerebral H3K9me3 levels was tested in old mice, in both a neurodegenerative model and WT siblings. The levels of brain H3K9me3 at days 4 (short-term) and 15 (long-term) following i.p. ETP69 injection (S regimen cohorts) were measured. […] These findings indicate that a single dose of ETP69 is sufficient to sustainably reduce H3K9me3 in the brains of old WT and neurodegenerative mice. Consistent with the observations in 18-month-old mice, ETP69 mitigated neuroinflammation, including by reduced ionized calcium-binding adaptor molecule 1 (Iba-1)^+ microgliosis in neurodegenerative mice (40%, p=0.0021; FIG. 16D).

PRMT3 = PRMT3 (Homo sapiens, UniProt O60678); assay: Methyltransferase inhibition panel: PRMT3; type: biochemical
Chain of PRMT3 (O60678 whole entry): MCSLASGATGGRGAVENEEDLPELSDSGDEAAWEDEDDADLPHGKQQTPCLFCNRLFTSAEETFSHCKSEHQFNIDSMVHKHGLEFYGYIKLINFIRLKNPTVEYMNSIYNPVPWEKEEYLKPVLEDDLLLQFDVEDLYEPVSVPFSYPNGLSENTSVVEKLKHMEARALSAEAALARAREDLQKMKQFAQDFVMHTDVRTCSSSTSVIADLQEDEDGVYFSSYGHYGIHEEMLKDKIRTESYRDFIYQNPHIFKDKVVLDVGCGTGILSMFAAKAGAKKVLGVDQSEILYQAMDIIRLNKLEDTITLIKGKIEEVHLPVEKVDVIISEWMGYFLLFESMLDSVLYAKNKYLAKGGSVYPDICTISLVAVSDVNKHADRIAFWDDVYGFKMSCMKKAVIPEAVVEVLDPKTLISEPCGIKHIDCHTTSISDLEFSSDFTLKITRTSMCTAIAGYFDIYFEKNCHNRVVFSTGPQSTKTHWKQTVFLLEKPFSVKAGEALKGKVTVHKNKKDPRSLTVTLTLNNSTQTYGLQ
Protocol: as §1

DNMT3b/3L = DNMT3b/3L (Homo sapiens, UniProt Q9UBC3); assay: Methyltransferase inhibition panel: DNMT3b/3L; type: biochemical
Protocol: as §1

[1] = read-out: Enzyme % Activity (relative to DMSO controls) Data 1
[2] = read-out: Enzyme % Activity (relative to DMSO controls) Data 2

Chain of PRMT5/MEP50 Complex (O14744 whole entry): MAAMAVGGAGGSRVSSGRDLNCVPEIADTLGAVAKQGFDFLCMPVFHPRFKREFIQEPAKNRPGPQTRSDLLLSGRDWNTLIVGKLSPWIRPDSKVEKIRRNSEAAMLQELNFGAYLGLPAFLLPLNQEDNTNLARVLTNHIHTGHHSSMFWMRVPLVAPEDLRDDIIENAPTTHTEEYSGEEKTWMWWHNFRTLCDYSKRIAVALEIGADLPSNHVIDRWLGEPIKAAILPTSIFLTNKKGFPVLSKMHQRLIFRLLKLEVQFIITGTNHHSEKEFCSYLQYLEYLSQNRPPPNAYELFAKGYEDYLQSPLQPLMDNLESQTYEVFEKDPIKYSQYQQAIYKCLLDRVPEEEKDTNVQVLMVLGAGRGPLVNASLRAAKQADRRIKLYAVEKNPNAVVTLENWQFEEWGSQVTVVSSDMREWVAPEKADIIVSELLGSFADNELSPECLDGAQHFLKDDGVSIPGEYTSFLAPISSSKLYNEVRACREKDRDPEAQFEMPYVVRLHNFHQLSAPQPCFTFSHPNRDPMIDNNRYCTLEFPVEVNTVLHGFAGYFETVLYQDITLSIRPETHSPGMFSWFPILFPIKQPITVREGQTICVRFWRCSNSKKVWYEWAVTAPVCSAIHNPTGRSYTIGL
Chain of PRMT5/MEP50 Complex (Q9BQA1 whole entry partner): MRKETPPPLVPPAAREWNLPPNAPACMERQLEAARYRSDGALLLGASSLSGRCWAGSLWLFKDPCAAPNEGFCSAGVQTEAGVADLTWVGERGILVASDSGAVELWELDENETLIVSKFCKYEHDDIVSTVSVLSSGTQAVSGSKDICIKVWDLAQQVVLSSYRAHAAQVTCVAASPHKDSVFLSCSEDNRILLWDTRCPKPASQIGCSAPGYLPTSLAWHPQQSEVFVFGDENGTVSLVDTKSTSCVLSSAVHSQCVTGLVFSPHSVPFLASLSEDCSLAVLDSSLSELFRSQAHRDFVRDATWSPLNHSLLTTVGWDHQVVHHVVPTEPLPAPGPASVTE

CN1C(=O)[C@@]23C[C@](C)(C#N)[C@H](c4ccc5c(c4)OCO5)N2C(=O)[C@]1(C)SS3 (racemic) [ETP69, Rac-(3S,6S,7S,8aS)-6-(benzo[d][1,3]dioxol-5-yl)-2,3,7-trimethyl-1,4-dioxohexahydro-6H-3,8a-epidithiopyrrolo[1,2-a]pyrazine-7-carbonitrile] showed a remaining activity at 20 µM (PRMT5/MEP50 Complex; [1]) of 92.2%, a remaining activity at 20 µM (PRMT5/MEP50 Complex; [2]) of 93.1% and a remaining activity at 20 µM (NSD2 (T1150A); [1]) of 23.9%. The remaining activity at 20 µM (NSD2 (T1150A); [2]) was 25.5%, the “inhibition relative to DMSO controls” value (NSD2 (T1150A); summary of Table 1) was “at least 7500” and the “reduction of hippocampal H3K9me3 levels” value (H3K9me3; CA, WT mice) was 36%. The “reduction of hippocampal H3K9me3 levels” value (H3K9me3; CA, neurodegenerative mice) was 54%, the “reduction of hippocampal H3K9me3 levels” value (H3K9me3; DG, neurodegenerative mice) was 42% and the “Levels of H3K9me3” value (H3K9me3; cingulate cortex and hippocampus, 4 and 15 days) was “decreased”. The “decrease in neuronal H3K9me3 irradiance” value (H3K9me3; AD+ mice, day 4) was 40%, the “decrease in neuronal H3K9me3 irradiance” value (H3K9me3; AD+ mice, day 14) was 40% and the “decrease in neuronal H3K9me3 irradiance” value (H3K9me3; wildtype mice, day 4) was 27%. For the same molecule, the “reduction of H3K9me3 IR area” value (H3K9me3; WT old mice, 4 days after single i.p. injection) was 27%, the “reduction of H3K9me3 IR area” value (H3K9me3; neurodegenerative mice, after 15 days) was 40% and the “reduction of H3K9me3 IR area” value (H3K9me3; neurodegenerative old mice, 4 days after single i.p. injection) was 40%. The H3K9me3 (H3K9me3; day 15, vs mice treated with DMSO) was “decreased”, the “decrease in H3K9me3 irradiance” value (H3K9me3; hippocampus, AD+ mice, vs AD+ mice administered DMSO) was 47% and the “H3K9 expression (H3K9me3 repression mark), cell-specific” value (H3K9me3; neurons, astrocytes, and microglia macrophages, AD+ mice) was “reduced”. The remaining activity at 20 µM (PRMT3; [1]) was 94%, the remaining activity at 20 µM (PRMT3; [2]) was 95% and the remaining activity at 20 µM (DNMT3b/3L; [1]) was 113%. It also gave a remaining activity at 20 µM (DNMT3b/3L; [2]) of 111%.

Reference: patent US20260207585A1, “METHODS AND COMPOSITIONS FOR THE TREATMENT OF PARKINSON'S DISEASE, HUNTINGTON'S DISEASE, AMYOTROPHIC LATERAL SCLEROSIS, AND LEARNING DISORDERS” (Cedars-Sinai Medical Center, priority 2022, published 2026)
